A short description of data set [1]: Stability of 7-HCA in assay buffer over time. It counts as physicochemical. The conditions noted are these: 25° C. On the procedure: The stability of 7-HCA in assay buffer was monitored over time and found to be stable for at least 5 hours at 25° C.
The target of data set [2] is T1, recombinant human MGL protein (Homo sapiens, UniProt Q99685).
T1 construct: a mixture of forward and reverse primers spanning the entire coding region; made in house; host or cells: E. coli BL21
T1 sequence (Q99685 1-303): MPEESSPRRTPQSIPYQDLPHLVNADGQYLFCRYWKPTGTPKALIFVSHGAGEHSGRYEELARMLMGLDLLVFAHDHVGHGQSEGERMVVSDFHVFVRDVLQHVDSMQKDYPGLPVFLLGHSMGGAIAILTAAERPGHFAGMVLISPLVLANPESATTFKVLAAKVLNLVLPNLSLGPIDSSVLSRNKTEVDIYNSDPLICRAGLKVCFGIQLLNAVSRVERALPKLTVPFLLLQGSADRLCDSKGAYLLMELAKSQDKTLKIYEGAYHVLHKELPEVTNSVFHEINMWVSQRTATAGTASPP
The experiment in a line: Fluorescence assay of MGL inhibition with 7-HCA as substrate. The data set is classed as biochemical. The conditions noted are these: for IC50: 3 ng MGL, 10 μM 7-HCA, pH 8, 25° C., 60 minutes. On the procedure: For measuring MGL inhibition by compounds, 3 ng protein per assay were incubated with indicated concentrations of the compound in the presence of 10 mM 7-HCA for 60 minutes. The reactions were stopped and processed as described above. Results are presented as the mean±S.E. of triplicate measurements from at least two independent experiments. The IC50 values were calculated by […]™ Prism 3.02 program using a sigmoidal dose-response equation.
Inhibition of MGL activity by URB602 was studied by treating 3 ng of MGL protein with increasing concentrations of URB602 with 7-HCA as substrate at pH 8, and 25° C., for 60 minutes in a total volume of 50 μl.
According to FIG. 7, the assay was carried out by incubating 3 ng of MGL protein with 10 μM 7-HCA and indicated concentrations of compounds in 50 mM HEPES, pH 8, 1 mM EDTA and 10% DMSO, at 25° C. for 60 minutes. The percent inhibition of MGL activity was plotted against compound concentration, and the IC50 was calculated by fitting the curve to a non-linear regression equation using […]™ Prism 3.02. Each data point represents mean±SD (n=3) from at least 2 individual experiments.

The target in data set [3] is T2, MGL (Rattus norvegicus, UniProt Q8R431).
T2 sequence (Q8R431 1-303): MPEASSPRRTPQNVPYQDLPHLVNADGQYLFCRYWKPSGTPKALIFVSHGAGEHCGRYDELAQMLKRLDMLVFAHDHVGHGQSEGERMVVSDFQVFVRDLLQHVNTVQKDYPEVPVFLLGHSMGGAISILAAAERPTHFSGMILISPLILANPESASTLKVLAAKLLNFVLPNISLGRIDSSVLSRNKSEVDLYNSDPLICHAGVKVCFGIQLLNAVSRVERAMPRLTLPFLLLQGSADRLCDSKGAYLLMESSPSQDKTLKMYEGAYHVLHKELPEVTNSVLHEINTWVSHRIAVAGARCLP
The arrangement: from tissue; host or cells: rat brain, periaqueductal grey, in vivo (reported from Hohmann 2005). The following applies: micro-injection into periaqueductal grey, blocked by CB1 antagonist SR141716; cited from earlier work.

Data set [4] addresses T2, MGL. The conditions noted are these: Makara 2005; later demonstrated to be false positive (impurity); read-out: IC50 of MGL previously reported; cited from earlier work.
Substrate in data set [5]: C=CCCCCC(=O)Oc1ccc2ccc(=O)oc2c1
Put plainly: Rate of hydrolysis of fluorogenic substrates by MGL (Michaelis-Menten kinetics, 7-HC fluorescence). The following applies: other: 3 ng/well MGL, 10% DMSO, pH 8.0, room temperature, read after 10 minutes, ND = not detectable activity. It counts as biochemical, human. On the procedure: (§1) The assay was performed in a 384-well black plate (NUNC) in a total volume of 50 μl. A typical assay consisted of 3 ng of MGL protein, 10 mM 7-HCA substrate (prepared in DMSO) in assay buffer consisting of 50 mM HEPES, pH 8, 1 mM EDTA, and […] of inhibitor solution or DMSO (10% final concentration). The components were mixed and incubated on a shaker for 10-60 min and the plate was read in a fluorescence plate reader (SPECTRAMAX™-Gemini; Ex: 355 nm; Em: 460 nm). The reaction was carried out at 25° C., and the fluorescence was monitored in the kinetic mode. The fluorescence units were converted to amount of product based on the standard curve generated with 7-HC. The data were analyzed using GRAPHPAD™ Prism Version 3.02. The observed rate constants (apparent KM) were calculated using GRAPHPAD™ Prism 3.02 based on a Michaelis-Menten (one site binding hyperbola) equation Y=BmaxX/[Kd+X].
(§2) Table 3, shown below, depicts rates of hydrolysis for MGL with representative fluorogenic substrates. Rates were measured at reactions containing 3 ng/well MGL protein, a series of concentrations of above compounds in 10% DMSO, pH 8.0, and room temperature. The 7-HC fluorescence (λex=355 nm, λem=460 nm) was read after 10-minutes. The data were analyzed and the Vmax and Km calculated using the Michaelis-Menten equation. *ND means “not detectable activity.”
(§3) The kinetic constants, KM (apparent) and Vmax were calculated by determining the MGL activity with increasing substrate concentrations. 3 ng MGL protein were incubated with increasing 7-HCA concentrations, at pH 8, 25° C., for 10 minutes in a 384-well black plate, in a total volume of 50 μl. Specific activity of MGL was plotted against the substrate concentration and the data was fit to a non-linear regression equation (FIG. 6). […] The Lineweaver-Burk plot is shown as an insert within FIG. 6.
(§4) According to FIG. 6, a 50 μl MGL reaction, containing 3 ng/well MGL protein, the indicated concentrations of 7-HCA and 10% DMSO, was performed at room temperature. The 7-HC fluorescence (λex=355 nm, λem=460 nm) was read after 10-minutes. The data were analyzed and the Vmax and KM calculated using the Michaelis-Menten equation. A Lineweaver-Burk plot of 7-HCA hydrolysis by substrate is also shown.

Substrate in data set [6]: CCCCC/C=C\C/C=C\C/C=C\C/C=C\CCCC(=O)Oc1ccc2ccc(=O)oc2c1
The description is as above. The data set is classed as biochemical, human. The conditions noted are these: other: 3 ng/well MGL, 10% DMSO, pH 8.0, room temperature, read after 10 minutes, ND = not detectable activity. The procedure: as §1, §2, §3, §4

Take `CCCCC/C=C\C/C=C\C/C=C\C/C=C\CCCC(=O)Oc1ccc2ccc(=O)oc2c1` [7-HCA, 7-Hydroxycoumarinyl-arachidonate]: in data set [1], the “stability in assay buffer” value is reported as “at least 5 hours”.
Consider `CCCCC/C=C\C/C=C\C/C=C\C/C=C\CCCCN1C(=O)C=CC1=O` [N-Arachidonyl Maleimide (NAM), N-Arachidonyl Maleimide], for which the concentration for half-maximal inhibition (IC50) in data set [2] came to 155 nM.
With `O=C(Nc1cccc(-c2ccccc2)c1)OC1CCCCC1` [URB602], the 50% inhibitory concentration (IC50) amounted to 3600 nM in data set [2] and 3100 nM in data set [2] (listed as URB-602). In addition, the “effect on stress-induced antinociception” value at MGL [3] is recorded as “enhanced stress-induced antinociception”.
Regarding `Cc1ccc(Nc2nc3ccc(C)cc3c(=O)o2)cc1` [URB754], the “inhibition of MGL activity (negative control)” value in data set [2] (concentrations up to 100 μM) is listed as “failing to inhibit MGL activity”. In addition, the half-maximal inhibitory concentration (IC50) at MGL [4] is 50 nM.

B1: recombinant human MGL protein (Homo sapiens) (protein)
chain: MPEESSPRRTPQSIPYQDLPHLVNADGQYLFCRYWKPTGTPKALIFVSHGAGEHSGRYEELARMLMGLDLLVFAHDHVGHGQSEGERMVVSDFHVFVRDVLQHVDSMQKDYPGLPVFLLGHSMGGAIAILTAAERPGHFAGMVLISPLVLANPESATTFKVLAAKVLNLVLPNLSLGPIDSSVLSRNKTEVDIYNSDPLICRAGLKVCFGIQLLNAVSRVERALPKLTVPFLLLQGSADRLCDSKGAYLLMELAKSQDKTLKIYEGAYHVLHKELPEVTNSVFHEINMWVSQRTATAGTASPP
notes: a mixture of forward and reverse primers spanning the entire coding region; made in house; host or cells: E. coli BL21
For the molecule B1, in data set [5], the Michaelis constant (Km) turned out to be 9.3 µM and the maximal velocity (Vmax) came out at 1.3 µmol/min/mg. For the same molecule, in data set [6], the Michaelis-Menten constant (Km) is 9.8 µM and the Vmax was found to be 1.7 µmol/min/mg.

These data come from patent US20090311723A1, “FLUORESCENCE-BASED ASSAY FOR MONOACYLGLYCEROL LIPASE COMPATIBLE WITH INHIBITOR SCREENING” (WYETH, priority 2007, published 2009).
